Results published in the OligoGym collection.
“And” between values parts separate entries of the source, which are not always exact repeats. Identical values can stand only once. HELM strings list units from the 5' end as sugar, base in round brackets, then linkage (d deoxyribose, r ribose, m 2'-O-methyl, p phosphodiester). Strings are as the collection lists them, not checked against the first reports. ss, as = sense and antisense strand; [lna] = locked nucleic acid (LNA); [una] = unlocked nucleic acid; [fl2r] = 2'-fluoro

Settings: siRNA
Further: test system not given here.

Substance	target mRNA knockdown
RNA1{[fl2r](G)p.r(C)p.[fl2r](U)p.r(G)p.[fl2r](U)p.r(A)p.[fl2r](A)p.r(C)p.[fl2r](C)p.r(U)p.[fl2r](C)p.r(G)p.[fl2r](G)p.r(A)p.[fl2r](G)p.r(A)p.[fl2r](G)p.r(U)p.r(U)p.r(T)p.r(T)}|RNA2{r(A)p.r(A)p.r(C)p.r(U)p.r(C)p.r(U)p.r(C)p.r(C)p.r(G)p.r(A)p.r(G)p.r(G)p.r(U)p.r(U)p.r(A)p.r(C)p.r(A)p.r(G)p.r(C)p.r(T)p.r(T)}$$$RNA1{StrandType:ss}|RNA2{StrandType:as}$	51%
RNA1{r(G)p.r(C)p.r(A)p.r(G)p.r(C)p.r(A)p.r(C)p.r(G)p.r(A)p.r(C)p.r(U)p.r(U)p.r(C)p.r(U)p.r(U)p.r(C)p.r(A)p.r(A)p.r(G)p.r(T)p.r(T)}|RNA2{[fl2r](C)p.[fl2r](U)p.[fl2r](U)p.r(G)p.r(A)p.r(A)p.r(G)p.r(A)p.r(A)p.r(G)p.[fl2r](U)p.[fl2r](C)p.r(G)p.[fl2r](U)p.r(G)p.[fl2r](C)p.[fl2r](U)p.r(G)p.[fl2r](C)p.r(T)p.r(T)}$$$RNA1{StrandType:ss}|RNA2{StrandType:as}$	83%
RNA1{r(A)p.r(A)p.r(G)p.r(G)p.m(C)p.r(A)p.r(U)p.r(G)p.r(C)p.r(U)p.r(U)p.r(C)p.r(G)p.r(G)p.r(A)p.r(A)p.r(A)p.r(C)p.r(U)p.r(T)p.r(T)}|RNA2{r(A)p.r(G)p.r(U)p.r(U)p.r(U)p.r(C)p.r(C)p.r(G)p.r(A)p.r(A)p.r(G)p.m(C)p.r(A)p.r(U)p.r(G)p.r(C)p.r(C)p.r(U)p.r(U)p.r(T)p.r(T)}$$$RNA1{StrandType:ss}|RNA2{StrandType:as}$	95%
RNA1{r(G)p.r(G)p.r(G)p.r(A)p.r(A)p.r(A)p.r(C)p.r(U)p.r(G)p.r(A)p.r(A)p.r(A)p.r(G)p.r(G)p.r(C)p.[fl2r](U)p.r(A)p.r(U)p.r(G)p.r(T)p.r(T)}|RNA2{r(C)p.r(A)p.r(U)p.r(A)p.r(G)p.r(C)p.r(C)p.r(U)p.r(U)p.r(U)p.r(C)p.r(A)p.r(G)p.r(U)p.r(U)p.r(U)p.r(C)p.r(C)p.r(C)p.r(T)p.r(T)}$$$RNA1{StrandType:ss}|RNA2{StrandType:as}$	50%
RNA1{r(G)p.r(U)p.r(A)p.r(U)p.r(G)p.r(A)p.r(C)p.r(C)p.r(G)p.r(A)p.r(C)p.r(U)p.r(A)p.r(C)p.r(G)p.r(C)p.r(G)p.r(U)p.r(A)p.r(T)p.r(T)}|RNA2{r(U)p.[una](U)p.r(C)p.r(A)p.r(G)p.r(U)p.r(G)p.r(U)p.r(G)p.r(A)p.r(U)p.r(G)p.r(A)p.r(C)p.r(A)p.r(C)p.r(U)p.r(U)p.r(G)p.r(T)p.r(T)}$$$RNA1{StrandType:ss}|RNA2{StrandType:as}$	0% and 2%
RNA1{r(C)p.r(U)p.r(U)p.r(A)p.r(C)p.r(G)p.r(C)p.r(U)p.r(G)p.r(A)p.r(G)p.r(U)p.r(A)p.r(C)p.r(U)p.r(U)p.r(C)p.r(G)p.r(A)p.r(T)p.r(T)}|RNA2{r(T)p.r(C)p.r(G)p.r(A)p.[lna](A)p.r(G)p.r(U)p.r(A)p.r(C)p.r(U)p.r(C)p.r(A)p.r(G)p.r(C)p.r(G)p.r(U)p.r(A)p.r(A)p.r(G)p.[lna](T)p.[lna](T)}$$$RNA1{StrandType:ss}|RNA2{StrandType:as}$	88%
RNA1{[fl2r](C)p.r(C)p.[fl2r](G)p.r(A)p.[fl2r](A)p.r(G)p.[fl2r](A)p.r(C)p.[fl2r](G)p.r(A)p.[fl2r](A)p.r(G)p.[fl2r](C)p.r(U)p.[fl2r](A)p.r(U)p.[fl2r](G)p.r(A)p.[fl2r](A)p.r(T)p.r(T)}|RNA2{r(U)p.r(U)p.r(C)p.r(A)p.r(U)p.r(A)p.[fl2r](G)p.r(C)p.r(U)p.r(U)p.r(C)p.[fl2r](G)p.r(U)p.r(C)p.r(U)p.r(U)p.r(C)p.[fl2r](G)p.[fl2r](G)p.r(T)p.r(T)}$$$RNA1{StrandType:ss}|RNA2{StrandType:as}$	23%
